Results reported in patent publication US11555012B2 (Nimbus Artemis, Inc., priority 2018, dated 2023).

These molecules were tested against ACL (Homo sapiens (Human), UniProt P53396) (assay: ADP-Glo Assay).
Sequence of ACL (P53396 other isoform, or with tags, fused parts or gaps isoform P53396-2): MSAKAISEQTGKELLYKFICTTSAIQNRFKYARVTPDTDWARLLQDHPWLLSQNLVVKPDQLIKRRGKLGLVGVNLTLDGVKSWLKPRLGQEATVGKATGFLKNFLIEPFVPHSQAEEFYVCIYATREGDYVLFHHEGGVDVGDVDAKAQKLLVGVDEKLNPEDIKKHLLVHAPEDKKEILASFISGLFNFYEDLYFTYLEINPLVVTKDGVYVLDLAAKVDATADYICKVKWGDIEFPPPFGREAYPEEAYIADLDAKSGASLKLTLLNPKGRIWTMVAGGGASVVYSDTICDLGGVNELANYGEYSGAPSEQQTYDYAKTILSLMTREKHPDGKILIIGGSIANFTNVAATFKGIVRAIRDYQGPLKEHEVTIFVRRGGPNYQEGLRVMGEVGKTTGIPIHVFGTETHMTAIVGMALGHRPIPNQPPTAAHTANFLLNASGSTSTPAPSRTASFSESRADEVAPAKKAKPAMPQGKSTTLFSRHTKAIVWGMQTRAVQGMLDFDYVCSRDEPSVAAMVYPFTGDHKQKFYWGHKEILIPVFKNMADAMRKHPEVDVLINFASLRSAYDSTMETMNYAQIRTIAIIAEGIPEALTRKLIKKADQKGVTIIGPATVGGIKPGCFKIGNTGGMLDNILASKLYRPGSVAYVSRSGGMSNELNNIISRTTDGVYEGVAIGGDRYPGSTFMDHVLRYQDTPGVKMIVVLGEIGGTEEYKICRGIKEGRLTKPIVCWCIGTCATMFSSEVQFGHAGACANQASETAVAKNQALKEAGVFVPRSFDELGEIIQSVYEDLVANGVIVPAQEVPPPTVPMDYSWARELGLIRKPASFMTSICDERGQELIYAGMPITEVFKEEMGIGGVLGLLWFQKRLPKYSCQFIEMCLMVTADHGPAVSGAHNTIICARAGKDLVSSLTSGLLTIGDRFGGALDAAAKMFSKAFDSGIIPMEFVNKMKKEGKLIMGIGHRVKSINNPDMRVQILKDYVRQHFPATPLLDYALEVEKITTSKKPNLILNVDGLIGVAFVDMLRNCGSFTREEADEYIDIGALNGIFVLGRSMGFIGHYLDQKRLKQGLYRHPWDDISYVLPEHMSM
Protocol: Compounds of the present invention were evaluated in an ADP-GLO assay as follows:
b) Add 0.1 μL diluted cpd solution to assay plate, each dose with 2 replicates c) Centrifuge 1000 RPM for 1 min d) Add 5 μL ACL working solution to 384-well assay plate, centrifuge 1000 RPM for 1 min e) Incubate at 25° C. for 15 min f) Add 5 μL substrate working solution to initiate reaction
h) Reference final conc: 30 uM starting Conc, 3× dilution, 11+0 points. Test cpd conc: 30/100 uM starting Conc, 3× dilution, 11+0 points. i) Incubate at 25° C. for 60 min j) Add 10 μL ADP Glo reagent, centrifuge 1000 RPM for 1 min k) Incubate at 25° C. for 40 min l) Add 20 μL kinase detection reagent, centrifuge 1000 RPM for 1 min m) Incubate at 25° C. for 40 min n) Read on Envision for US LUM as RLU

| IC50 [µM] | SMILES |
| --- | --- |
| > 20 | O=C(COc1c(Cl)cc(C(=O)N2CCC2)cc1S(=O)(=O)Nc1cc(-c2ccccc2)c(F)cc1F)OCc1ccccc1 [I-375, benzyl 2-(4-(azetidine-1-carbonyl)-2-chloro-6-(N-(4,6-difluoro-[1,1′-biphenyl]-3-yl)sulfamoyl)phenoxy)acetate] |
| 0.5 to 20 | COc1ccc(-c2ccccc2)cc1NS(=O)(=O)c1cc(Cl)cc(-c2nn[nH]n2)c1 [I-38, 3-chloro-N-(2-methoxy-5-phenylphenyl)-5-(2H-1,2,3,4-tetrazol-5-yl)benzene-1-sulfonamide] |
| 0.5 to 20 | CN(c1cc(-c2ccccc2)ccc1F)S(=O)(=O)c1cc(Cl)cc(Br)c1O [I-370, 3-bromo-5-chloro-N-(4-fluoro-[1,1′-biphenyl]-3-yl)-2-hydroxy-N-methylbenzenesulfonamide] |
| 0.5 to 20 | O=S(=O)(Nc1cc(-c2ccccc2)c(F)cc1F)c1cc(Cl)cc(Br)c1 [I-246, 3-bromo-5-chloro-N-(4,6-difluoro-[1,1′-biphenyl]-3-yl)benzenesulfonamide] |
| > 20 | O=C(O)c1ccccc1NS(=O)(=O)c1cc(Cl)cc(Cl)c1 [I-522, 2-((3,5-dichlorophenyl)sulfonamido)benzoic acid] |
| > 20 | COC(=O)c1cc(Cl)cc(S(=O)(=O)Nc2cc(-c3ccccc3)ccc2OC)c1O [I-431, Methyl 5-chloro-2-hydroxy-3-(N-(4-methoxy-[1,1′-biphenyl]-3-yl)sulfamoyl)benzoate] |
| 0.5 to 20 | O=S(=O)(Nc1ccc(OCc2ccccc2)cc1)c1cc(Cl)cc(Cl)c1O [I-171] |
| > 20 | COc1ccc(-c2ccccc2)cc1N(Cc1cc(Cl)cc(Cl)c1O)S(C)(=O)=O [I-391, N-(3,5-dichloro-2-hydroxybenzyl)-N-(4-methoxy-[1,1′-biphenyl]-3-yl)methanesulfonamide] |
| 0.5 to 20 | O=C(Nc1cc(-c2ccccc2)ccc1F)c1cc(Cl)cc(Cl)c1O [I-27, 3,5-dichloro-N-(4-fluoro-[1,1′-biphenyl]-3-yl)-2-hydroxybenzamide] |
| 0.5 to 20 | O=S(=O)(Nc1cc(-c2ccccc2)c(F)cc1F)c1cccc(Cl)c1F [I-195, 3-chloro-N-(4,6-difluoro-[1,1′-biphenyl]-3-yl)-2-fluorobenzenesulfonamide] |
| 0.5 to 20 | Nc1cc(-c2ccccc2)ccc1NS(=O)(=O)c1cc(Cl)cc(Br)c1O [I-57, N-(2-amino-4-phenylphenyl)-3-bromo-5-chloro-2-hydroxybenzene-1-sulfonamide] |
| > 20 | N#Cc1ccc(F)c(S(=O)(=O)Nc2cc(-c3ccccc3)ccc2F)c1 [I-418, 5-cyano-2-fluoro-N-(2-fluoro-5-phenylphenyl) benzene-1-sulfonamide] |
| 0.5 to 20 | CC(=O)N1CCCN(c2ccc(-c3ccccc3)cc2NS(=O)(=O)c2cc(Cl)cc(Cl)c2O)CC1 [I-279, N-[4-(4-acetyl-1,4-diazepan-1-yl)-[1,1-biphenyl]-3-yl]-3,5-dichloro-2-hydroxybenzene-1-sulfonamide] |
| 0.5 to 20 | CN(C)C(=O)C(NS(=O)(=O)c1cc(Cl)cc(Cl)c1O)c1ccccc1 (stereo not drawn) [I-179] |
| 0.5 to 20 | NC(=O)COc1c(Cl)cc(Cl)cc1S(=O)(=O)Nc1cc(-c2ccccc2)ccc1F [I-151, 2-(2,4-dichloro-6-(N-(4-fluoro-[1,1′-biphenyl]-3-yl)sulfamoyl)phenoxy)acetamide] |
| 0.5 to 20 | CC(=O)N1CCCN(c2ccc(F)cc2NS(=O)(=O)c2cc(Cl)cc(Cl)c2O)CC1 [I-175] |
| 0.5 to 20 | O=S(=O)(Nc1cc(-c2ccccc2)ccc1F)c1cc(Cl)ccc1O [I-30, 5-chloro-N-(2-fluoro-5-phenylphenyl)-2-hydroxybenzene-1-sulfonamide] |
| > 20 | CO[C@H]1CCN(C(=O)c2cc(Cl)cc(S(=O)(=O)Nc3cc(-c4ccccc4)c(F)cc3F)c2)C1 [I-389, (S)-3-chloro-N-(4,6-difluoro-[1,1′-biphenyl]-3-yl)-5-(3-methoxypyrrolidine-1-carbonyl)benzenesulfonamide] |
